In patent US12404304B1, “Telomerase reverse transcriptase (TERT) expression enhancing compounds and methods for using the same” (Sierra Sciences, LLC, priority 2007, dated 2025):
Read-outs that look alike come from different tables or passages of the source.

How the values were obtained:
[1] = tested on: human TERT expression (hTERT mRNA); experiment: Quantitative real-time RT-PCR of hTERT mRNA expression (Ct, transcripts) in compound-treated cells; type: cell-based
Procedure, shortened: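 Read-out is cycle threshold, the cycle at which probe fluorescence released by Taq 5′-nuclease activity crosses a set level; Ct falls as hTERT mRNA rises. cDNA of treated and untreated cells was compared, with starting transcripts quantified against a known-cDNA standard curve.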

[2] = tested on: viable cells in culture
Description: (§1) Cell viability is determined using a homogeneous method, such as CellTiter-Glo® Luminescent Cell Viability Assay (Promega Corporation, Madison, WI.) to determine the number of viable cells in culture These assays are based on quantitation of the ATP present, which signals the presence of metabolically active cells. Luminescent values of compound treated cells are compared to that of cells treated with vehicle alone to determine the average cell viability as a percent of control.

[3] = tested on: viable cells in culture; experiment: Cell viability assay (CellTiter-Glo Luminescent Cell Viability Assay, ATP quantitation, percent of vehicle control)
Description: as §1

| Compound | Average Number of hTERT Transcripts [1] | Average Cell Viability after 24 Hours (% DMSO) [2] [% DMSO] | Average Cell Viability after 24 Hours (% DMSO) [3] [% DMSO] |
| --- | --- | --- | --- |
| Fc1cc(Br)cc2c1NC(c1cccnc1)C1CC=CC21 (centres unmarked) [compound 1457] | 12.20 | 57.76 |  |
| Fc1cc(F)c2c(c1)C1C=CCC1C(c1cccnc1)N2 (centres unmarked) [compound 1463] | 174.29 | 62.06 |  |
| O=C(NCCc1c[nH]cn1)c1cc(-c2cccs2)on1 [compound 1523] | 513.46 | 87.71 |  |
| CCOC(=O)c1c(NC(=O)CCN2C(=O)c3ccccc3C2=O)sc2c1CCC(C)C2 (centres unmarked) [compound 1543] | 3.71 |  | 82.75 |
| OCCN1CCN(c2ncnc3scc(-c4ccccc4)c23)CC1 [compound 1544] | 3.85 |  | 104.59 |
| CC1CCc2c(sc3ncnc(N4CCCC(C)C4)c23)C1 (centres unmarked) [compound 1545] | 4.40 |  | 43.72 |
| Cc1ccccc1OCC(=O)OCc1ccc([N+](=O)[O-])cc1 [compound 1548] | 5.77 |  | 99.62 |
| COC(=O)c1ccc(COC(=O)CCS(=O)(=O)c2ccc(C)cc2)cc1 [compound 1549] | 8.60 |  | 99.71 |
| C=CCN(CC=C)CCCOc1ccccc1 [compound 1550] | 12.90 |  | 96.87 |
| COC(=O)COc1ccc(S(=O)(=O)NCc2ccc(C)cc2)cc1 [compound 1551] | 16.60 |  | 40.32 |
| c1ccc(-c2nc3ccccn3c2Nc2ccc3c(c2)OCCO3)nc1 [compound 1552] | 21.09 |  | 64.55 |
| O=C(COc1ccccc1)Nc1ccc(C(=O)NCC2COc3ccccc3O2)cc1 (centres unmarked) [compound 1553] | 23.58 |  | 77.33 |
| Cc1ccc(NC(=O)CCC(=O)OCC(=O)c2ccc(Br)cc2)c(C)c1 [compound 1554] | 46.62 |  | 71.31 |
| CC(C)(C)c1cc(-c2nc3ccccc3[nH]2)c(O)c(-c2nc3ccccc3[nH]2)c1 [compound 1555] | 52.10 |  | 90.08 |
| CSc1nc(C2CC2)cc(-c2ccccc2)c1C#N [compound 1556] | 85.40 |  | 90.02 |
| NCCC(=O)N[C@@H](Cc1cnc[nH]1)C(=O)O [compound 1557] | 54.80 |  | 97.77 |
